Test results reported in ChEMBL document CHEMBL4725284, “Junceellolide B, a novel inhibitor of Hepatitis B virus” (Bioorg Med Chem, 2020).
Calls of active or inactive are those of the source. The rule behind the calls is not given here.

Legend:
[1] = system: Hepatitis B virus; assay: Antiviral activity against HBV infected in human HepAD38 cells assessed as inhibition of viral DNA incubated for 4 days by SYBR green dye based RT-PCR analysis; assay type: functional, organism-based; settings: HePAD38, 96 h
[2] = system: Hepatitis B virus; assay: Antiviral activity against HBV infected in human HepAD38 cells assessed as inhibition of viral DNA at 10 uM incubated for 4 days by SYBR green dye based RT-PCR analysis relative to control; assay type: functional; settings: HePAD38, 96 h, time 4 day
[3] = Cytotoxicity against human HepG2 cells assessed as cell viability incubated for 72 hrs by MTT assay; assay type: cell-based
[4] = Cytotoxicity against human HePAD38 cells assessed as cell viability incubated for 72 hrs by MTT assay; assay type: cell-based
[5] = system: Hepatitis B virus; assay: Antiviral activity against HBV infected human HepAD38 cells assessed as degradation of HBV RNA; assay type: functional, organism-based
[6] = system: Hepatitis B virus; assay: Antiviral activity against HBV infected human HepAD38 cells assessed as inhibition of total HBV RNA at 10 uM in absence of tet followed by treating with compound after 24 hrs measured after 4 days by RT-qPCR analysis; assay type: functional, organism-based; settings: time 4.0 day
[7] = system: Hepatitis B virus; assay: Antiviral activity against HBV infected in human HuH7 cells transfected with luciferase reporter plasmid assessed as repression of HBV basal core promoter at 0.25 to 10 uM incubated for 48 hrs by luciferase assay; assay type: functional, organism-based; settings: Huh-7, dose microM 0.25-10, time 48.0 hrs
[8] = system: Hepatitis B virus; assay: Antiviral activity against HBV infected in human HuH7 cells assessed as reduction in the expression of viral mRNA at 10 uM incubated for 4 days by FPKM analysis; assay type: functional, organism-based; settings: Huh-7, time 4.0 day
[9] = system: Hepatitis B virus; assay: Antiviral activity against HBV infected human HepAD38 cells assessed as decrease in reverse-transcripted ssDNA treated with tet and LAM followed by addition of compound by southern blot analysis; assay type: functional, organism-based; settings: dose microM 1.25-10, time 4.0 day
[10] = Downregulation of ZBTB7B in HBV infected human HepAD38 cells assessed as inhibitory rate at 10 uM in absence of tet incubated with compound for 4 days followed by RNA extraction with trizol reagent and measured by qRT-PCR analysis relative to control; assay type: functional; settings: Hepatitis B virus, HePAD38, 96 h, time 4 day
[11] = system: Hepatitis B virus; assay: Antiviral activity against HBV infected human HepAD38 cells assessed as reduction in HBV cccDNA levels pretreated with tet for 2 days measured after 8 days post treatment with compound by rolling-cycle amplification; assay type: functional, organism-based; settings: time 10.0 day
[12] = system: Hepatitis B virus; assay: Antiviral activity against HBV infected in human HuH7 cells transfected with luciferase reporter plasmid assessed as repression of HBV enhancer I at 0.25 to 10 uM incubated for 48 hrs by luciferase assay; assay type: functional, organism-based; settings: Huh-7, dose microM 0.25-10, time 48.0 hrs
[13] = system: Hepatitis B virus; assay: Antiviral activity against HBV infected human HepAD38 cells assessed as reduction in HBV RNA levels preincubated with compound for 4 days measured after 4 days by RT-PCR analysis; assay type: functional, organism-based
[14] = system: Hepatitis B virus; assay: Antiviral activity against HBV infected human HepAD38 cells assessed as inhibition of pgRNA at 10 uM in absence of tet followed by treating with compound after 24 hrs measured after 4 days by RT-qPCR analysis; assay type: functional, organism-based; settings: time 4.0 day
[15] = system: Hepatitis B virus; assay: Antiviral activity against HBV infected human HepAD38 cells assessed as decrease in HBV cccDNA levels pretreated with tet for 2 days measured after 8 days post treatment with compound by southern blot analysis; assay type: functional, organism-based; settings: time 10.0 day
[16] = system: Hepatitis B virus; assay: Antiviral activity against HBV infected human HepAD38 cells assessed as HBV cccDNA degradation in presence of tet and LAM at 10 uM obtained up to 8 days post treatment by rolling cycle amplification; assay type: functional, organism-based; settings: time day <=8
[17] = system: Hepatitis B virus; assay: Antiviral activity against HBV infected human HepAD38 cells assessed as decrease in reverse-transcripted rcDNA treated with tet and LAM followed by addition of compound by southern blot analysis; assay type: functional, organism-based; settings: dose microM 1.25-10, time 4.0 day
[18] = system: Hepatitis B virus; assay: Antiviral activity against HBV infected human HepAD38 cells assessed as reduction in HBeAg secretion preincubated with compound for 4 days measured after 4 days by […] analysis; assay type: functional, organism-based
[19] = system: Hepatitis B virus; assay: Antiviral activity against HBV infected human HepAD38 cells assessed as reduction in HBV DNA levels preincubated with compound for 4 days measured after 4 days by RT-PCR analysis; assay type: functional, organism-based
[20] = system: Hepatitis B virus; assay: Antiviral activity against HBV infected human HepAD38 cells assessed as inhibition of 3.5 kb RNA at 10 uM in absence of tet followed by treating with compound after 24 hrs measured after 4 days by northern blot analysis; assay type: functional, organism-based; settings: time 4.0 day
[21] = system: Hepatitis B virus; assay: Antiviral activity against HBV infected human HepAD38 cells assessed as decrease in HBV core proteins measured after 4 days by western blot analysis; assay type: functional, organism-based; settings: dose microM 1.25-10, time 4.0 day
[22] = system: Hepatitis B virus; assay: Antiviral activity against HBV infected human HepAD38 cells assessed as inhibition of precRNA at 10 uM in absence of tet followed by treating with compound after 24 hrs measured after 4 days by RT-qPCR analysis; assay type: functional, organism-based; settings: time 4.0 day
[23] = system: Hepatitis B virus; assay: Antiviral activity against HBV infected in doxycycline-induced human HepG2-NTCP cells assessed as reduction in HBsAg secretion in supernatant measured from day 2 to 8 post treatment by time resolved fluoroimmunoassay; assay type: functional, organism-based; settings: dose microM 2.5-10, time day 2-8
[24] = Downregulation of ZBED6 in HBV infected human HepAD38 cells assessed as inhibition rate at 10 uM in absence of tet incubated with compound for 4 days followed by RNA extraction with trizol reagent measured by qRT-PCR analysis relative to control; assay type: functional; settings: Hepatitis B virus, HePAD38, 96 h, time 4 day
[25] = system: Hepatitis B virus; assay: Antiviral activity against HBV infected in doxycycline-induced human HepG2-NTCP cells assessed as reduction in HBeAg secretion in supernatant measured from day 2 to 8 post treatment by time resolved fluoroimmunoassay; assay type: functional, organism-based; settings: dose microM 2.5-10, time day 2-8
[26] = system: Hepatitis B virus; assay: Antiviral activity against HBV infected human HepAD38 cells assessed as decrease in DP-rcDNA levels pretreated with tet for 2 days measured after 8 days post treatment with compound by southern blot analysis; assay type: functional, organism-based; settings: time 10.0 day

Structure (SMILES): C=C1/C=C/[C@H](OC(=O)CC)[C@@]2(C)[C@@H](OC(C)=O)CC[C@]3(CO3)[C@@H]2[C@H](OC(C)=O)[C@]2(O)[C@@H](C)C(=O)O[C@H]2[C@H]1Cl
- EC50 [1]: 0.81 µM
- inhibition at 10 µM [2]: 75%
- CC50 at 72 h [3]: > 100 µM
- CC50 at 72 h [4]: > 100 µM

Structure (SMILES): C=C1CC[C@H](OC(C)=O)[C@@]2(C)[C@H]1[C@H](OC(C)=O)[C@@]13O[C@@H](C(=C)[C@H](Cl)[C@@H]1OC(=O)[C@@H]3C)[C@@H](O)[C@@H]2OC(C)=O
- inhibition at 10 µM [2]: 10%
- CC50 at 72 h [3]: > 100 µM
- CC50 at 72 h [4]: > 100 µM

Structure (SMILES): C=C1[C@H](Cl)[C@@H]2OC(=O)[C@H](C)[C@]23O[C@]1(O)C[C@H](OC(C)=O)[C@@]1(C)[C@@H](OC(C)=O)CC[C@]2(CO2)[C@@H]1[C@@H]3OC(C)=O
- inhibition at 10 µM [2]: 4%
- CC50 at 72 h [3]: > 100 µM
- CC50 at 72 h [4]: > 100 µM

Structure (SMILES): C=C1CC[C@H](OC(C)=O)[C@]2(C)[C@@H](OC(C)=O)C[C@@H](O)/C(C)=C\[C@@H]3OC(=O)[C@H](C)[C@@]3(O)[C@@H](OC(C)=O)[C@@H]12
- inhibition at 10 µM [2]: 12%
- CC50 at 72 h [3]: > 100 µM
- CC50 at 72 h [4]: > 100 µM

Structure (SMILES): C=C1/C=C/[C@H](OC(C)=O)[C@@]2(C)[C@@H](OC(C)=O)CC[C@]3(CO3)[C@@H]2[C@H](OC(C)=O)[C@]2(O)[C@@H](C)C(=O)O[C@H]2[C@H]1Cl [JUNCEELLOLIDE C]
- EC50 [1]: 5.19 µM
- inhibition at 10 µM [2]: 63%
- CC50 at 72 h [3]: > 100 µM
- CC50 at 72 h [4]: > 100 µM

Structure (SMILES): C=C1CC[C@H](OC(C)=O)[C@]2(C)[C@@H](OC(C)=O)/C=C/C(=C)[C@H](Cl)[C@@H]3OC(=O)[C@H](C)[C@@]3(O)[C@@H](OC(C)=O)[C@@H]12
- Activity [5]: inactive
- inhibition [6]: Active
- EC50 [1]: 0.83 µM
- Activity [7]: Active
- Activity [8]: Active
- Activity [9]: Dose-dependent effect
- inhibition at 10 µM [10]: 32%
- Activity [11]: Active
- Activity [12]: Active
- EC50 [13]: 2.87 µM
- inhibition at 10 µM [2]: 64%
- inhibition [14]: Active
- Activity [15]: Active
- Activity [16]: inactive
- Activity [17]: Dose-dependent effect
- EC50 [18]: 7.75 µM
- EC50 [19]: 0.83 µM
- inhibition [20]: Active
- Activity [21]: Dose-dependent effect
- inhibition [22]: Active
- Activity [23]: Dose-dependent effect
- CC50 at 72 h [3]: > 100 µM
- inhibition at 10 µM [24]: 28%
- CC50 at 72 h [4]: > 100 µM
- Activity [25]: Dose-dependent effect
- Activity [26]: Active

Structure (SMILES): C=C1/C=C/[C@H](OC(C)=O)[C@@]2(C)[C@@H](OC(C)=O)[C@@H](OC(C)=O)C[C@]3(CO3)[C@@H]2[C@H](OC(C)=O)[C@]2(O)[C@@H](C)C(=O)O[C@H]2[C@H]1Cl [FRAJUNOLIDE I]
- inhibition at 10 µM [2]: 41%
- CC50 at 72 h [3]: > 100 µM
- CC50 at 72 h [4]: > 100 µM
